# In US20250332160A1, “COMPOSITION CONTAINING ARIPIPRAZOLE AS ACTIVE INGREDIENT FOR ENHANCING ANTICANCER EFFECT OF ERK INHIBITOR” (KOREA INSTITUTE OF RADIOLOGICAL & MEDICAL SCIENCES, priority 2022, published 2025):
# Experiments:
# NOXA = test: Expression of NOXA protein in COLO 205 cells, Western blot; assay type: cell-based; conditions: eight hours after treatment, Western blot (FIG. 1)
# Procedure: (§1) To identify an effect of aripiprazole on the expression of NOXA and PUMA proteins in cancer cells, COLO 205 cells were treated with aripiprazole. Eight hours later, proteins were extracted from cells after washing with PBS, and a level of NOXA and PUMA expression was checked via Western blot.
# PUMA = test: Expression of PUMA protein in COLO 205 cells, Western blot; assay type: cell-based; conditions: eight hours after treatment, Western blot (FIG. 1)
# Procedure: as §1
smiles,measurement,setting,value
O=C1CCc2ccc(OCCCCN3CCN(c4cccc(Cl)c4Cl)CC3)cc2N1 [aripiprazole],expression of NOXA protein,NOXA,increased
same,expression of PUMA protein,PUMA,increased
